± gives the expanded uncertainty stated by the source.
How the values were obtained:
[1] = 101.33 kPa, Liquid
[2] = excess molar enthalpy (molar enthalpy of mixing); xn = mol fraction of the nth substance listed; conditions: 308.15 K, 101.33 kPa, Liquid

SMILES: CC(O)CO (stereo unspecified) [1,2-propanediol]
- mass density ([1]; 308.15 K): 1026.15 ± 0.53 kg/m3

SMILES: OCCc1ccccc1 [2-phenylethanol]
- mass density ([1]; 308.15 K): 1008.68 ± 0.51 kg/m3

SMILES: OCCc1ccccc1 [2-phenylethanol] + CC(O)CO
- excess molar enthalpy ([2]; x2 = 0.0637): 0.0251 ± 0.000765 kcal/mol
- excess molar enthalpy ([2]; x2 = 0.1198): 0.0403 ± 0.001 kcal/mol
- excess molar enthalpy ([2]; x2 = 0.1695): 0.0483 ± 0.00112 kcal/mol
- excess molar enthalpy ([2]; x2 = 0.2139): 0.0548 ± 0.00124 kcal/mol
- excess molar enthalpy ([2]; x2 = 0.2858): 0.0599 ± 0.00134 kcal/mol
- excess molar enthalpy ([2]; x2 = 0.3525): 0.0608 ± 0.00134 kcal/mol
- excess molar enthalpy ([2]; x2 = 0.4495): 0.0582 ± 0.00129 kcal/mol
- excess molar enthalpy ([2]; x2 = 0.5212): 0.0576 ± 0.00129 kcal/mol
- excess molar enthalpy ([2]; x2 = 0.6201): 0.0539 ± 0.00122 kcal/mol
- excess molar enthalpy ([2]; x2 = 0.7101): 0.0509 ± 0.00117 kcal/mol
- excess molar enthalpy ([2]; x2 = 0.7656): 0.0473 ± 0.00112 kcal/mol
- excess molar enthalpy ([2]; x2 = 0.8305): 0.0397 ± 0.00098 kcal/mol
- excess molar enthalpy ([2]; x2 = 0.8672): 0.0339 ± 0.000908 kcal/mol
- excess molar enthalpy ([2]; x2 = 0.9074): 0.0266 ± 0.000789 kcal/mol
- excess molar enthalpy ([2]; x2 = 0.9289): 0.0212 ± 0.000693 kcal/mol
- excess molar enthalpy ([2]; x2 = 0.9494): 0.0158 ± 0.000621 kcal/mol
- excess molar enthalpy ([2]; x2 = 0.9751): 0.00853 ± 0.000502 kcal/mol

SMILES: OCCc1ccccc1 [2-phenylethanol] + OCCO
- excess molar enthalpy ([2]; x2 = 0.0823): 0.0254 ± 0.000765 kcal/mol
- excess molar enthalpy ([2]; x2 = 0.1521): 0.0386 ± 0.000956 kcal/mol
- excess molar enthalpy ([2]; x2 = 0.212): 0.0456 ± 0.00108 kcal/mol
- excess molar enthalpy ([2]; x2 = 0.264): 0.0486 ± 0.00112 kcal/mol
- excess molar enthalpy ([2]; x2 = 0.3498): 0.0495 ± 0.00115 kcal/mol
- excess molar enthalpy ([2]; x2 = 0.4177): 0.0478 ± 0.00112 kcal/mol
- excess molar enthalpy ([2]; x2 = 0.5183): 0.0467 ± 0.0011 kcal/mol
- excess molar enthalpy ([2]; x2 = 0.5892): 0.0446 ± 0.00108 kcal/mol
- excess molar enthalpy ([2]; x2 = 0.6827): 0.0408 ± 0.001 kcal/mol
- excess molar enthalpy ([2]; x2 = 0.7635): 0.036 ± 0.000932 kcal/mol
- excess molar enthalpy ([2]; x2 = 0.8115): 0.0313 ± 0.00086 kcal/mol
- excess molar enthalpy ([2]; x2 = 0.8659): 0.0257 ± 0.000765 kcal/mol
- excess molar enthalpy ([2]; x2 = 0.8959): 0.0214 ± 0.000693 kcal/mol
- excess molar enthalpy ([2]; x2 = 0.9281): 0.0168 ± 0.000621 kcal/mol
- excess molar enthalpy ([2]; x2 = 0.9451): 0.0134 ± 0.000574 kcal/mol
- excess molar enthalpy ([2]; x2 = 0.9627): 0.00989 ± 0.000526 kcal/mol
- excess molar enthalpy ([2]; x2 = 0.981): 0.00507 ± 0.000454 kcal/mol

SMILES: OCCc1ccccc1 [2-phenylethanol] + OCCOCCO
- excess molar enthalpy ([2]; x2 = 0.05): -0.0263 ± 0.000789 kcal/mol
- excess molar enthalpy ([2]; x2 = 0.0952): -0.0434 ± 0.00105 kcal/mol
- excess molar enthalpy ([2]; x2 = 0.1363): -0.0541 ± 0.00122 kcal/mol
- excess molar enthalpy ([2]; x2 = 0.1738): -0.0613 ± 0.00136 kcal/mol
- excess molar enthalpy ([2]; x2 = 0.2399): -0.0675 ± 0.00146 kcal/mol
- excess molar enthalpy ([2]; x2 = 0.2961): -0.0721 ± 0.00153 kcal/mol
- excess molar enthalpy ([2]; x2 = 0.3869): -0.0735 ± 0.00155 kcal/mol
- excess molar enthalpy ([2]; x2 = 0.4569): -0.0727 ± 0.00155 kcal/mol
- excess molar enthalpy ([2]; x2 = 0.5579): -0.0712 ± 0.00153 kcal/mol
- excess molar enthalpy ([2]; x2 = 0.6544): -0.0684 ± 0.00148 kcal/mol
- excess molar enthalpy ([2]; x2 = 0.7163): -0.0652 ± 0.00141 kcal/mol
- excess molar enthalpy ([2]; x2 = 0.7911): -0.0577 ± 0.00129 kcal/mol
- excess molar enthalpy ([2]; x2 = 0.8347): -0.0503 ± 0.00117 kcal/mol
- excess molar enthalpy ([2]; x2 = 0.8834): -0.0401 ± 0.00098 kcal/mol
- excess molar enthalpy ([2]; x2 = 0.9099): -0.0355 ± 0.000932 kcal/mol
- excess molar enthalpy ([2]; x2 = 0.9381): -0.0248 ± 0.000765 kcal/mol
- excess molar enthalpy ([2]; x2 = 0.968): -0.0131 ± 0.000574 kcal/mol

SMILES: OCCc1ccccc1 [2-phenylethanol] + OCCOCCOCCO
- excess molar enthalpy ([2]; x2 = 0.036): -0.0244 ± 0.000741 kcal/mol
- excess molar enthalpy ([2]; x2 = 0.0695): -0.0421 ± 0.00103 kcal/mol
- excess molar enthalpy ([2]; x2 = 0.1008): -0.0542 ± 0.00122 kcal/mol
- excess molar enthalpy ([2]; x2 = 0.13): -0.0622 ± 0.00136 kcal/mol
- excess molar enthalpy ([2]; x2 = 0.1832): -0.0713 ± 0.00153 kcal/mol
- excess molar enthalpy ([2]; x2 = 0.2296): -0.0755 ± 0.0016 kcal/mol
- excess molar enthalpy ([2]; x2 = 0.3096): -0.079 ± 0.00165 kcal/mol
- excess molar enthalpy ([2]; x2 = 0.3741): -0.0801 ± 0.00167 kcal/mol
- excess molar enthalpy ([2]; x2 = 0.4728): -0.0805 ± 0.00167 kcal/mol
- excess molar enthalpy ([2]; x2 = 0.5737): -0.0778 ± 0.00163 kcal/mol
- excess molar enthalpy ([2]; x2 = 0.6421): -0.0755 ± 0.0016 kcal/mol
- excess molar enthalpy ([2]; x2 = 0.7346): -0.0676 ± 0.00146 kcal/mol
- excess molar enthalpy ([2]; x2 = 0.782): -0.06 ± 0.00134 kcal/mol
- excess molar enthalpy ([2]; x2 = 0.8433): -0.0473 ± 0.00112 kcal/mol
- excess molar enthalpy ([2]; x2 = 0.8777): -0.0396 ± 0.00098 kcal/mol
- excess molar enthalpy ([2]; x2 = 0.915): -0.0282 ± 0.000813 kcal/mol
- excess molar enthalpy ([2]; x2 = 0.9556): -0.0151 ± 0.000598 kcal/mol

SMILES: OCCc1ccccc1 [2-phenylethanol] + OCCOCCOCCOCCO
- excess molar enthalpy ([2]; x2 = 0.0281): -0.0289 ± 0.000813 kcal/mol
- excess molar enthalpy ([2]; x2 = 0.0546): -0.0488 ± 0.00115 kcal/mol
- excess molar enthalpy ([2]; x2 = 0.0797): -0.0614 ± 0.00136 kcal/mol
- excess molar enthalpy ([2]; x2 = 0.1036): -0.0687 ± 0.00148 kcal/mol
- excess molar enthalpy ([2]; x2 = 0.1478): -0.0782 ± 0.00165 kcal/mol
- excess molar enthalpy ([2]; x2 = 0.1878): -0.0817 ± 0.0017 kcal/mol
- excess molar enthalpy ([2]; x2 = 0.2575): -0.0832 ± 0.00172 kcal/mol
- excess molar enthalpy ([2]; x2 = 0.3161): -0.0835 ± 0.00174 kcal/mol
- excess molar enthalpy ([2]; x2 = 0.4095): -0.0859 ± 0.00177 kcal/mol
- excess molar enthalpy ([2]; x2 = 0.5099): -0.0878 ± 0.00182 kcal/mol
- excess molar enthalpy ([2]; x2 = 0.5811): -0.0845 ± 0.00174 kcal/mol
- excess molar enthalpy ([2]; x2 = 0.6754): -0.08 ± 0.00167 kcal/mol
- excess molar enthalpy ([2]; x2 = 0.7351): -0.0724 ± 0.00155 kcal/mol
- excess molar enthalpy ([2]; x2 = 0.8063): -0.0606 ± 0.00134 kcal/mol
- excess molar enthalpy ([2]; x2 = 0.8473): -0.0507 ± 0.00117 kcal/mol
- excess molar enthalpy ([2]; x2 = 0.8928): -0.042 ± 0.00103 kcal/mol
- excess molar enthalpy ([2]; x2 = 0.9433): -0.0258 ± 0.000765 kcal/mol

SMILES: OCCOCCO [diethylene glycol]
- mass density ([1]; 298.15 K): 1112.38 ± 0.58 kg/m3
- mass density ([1]; 308.15 K): 1105.88 ± 0.58 kg/m3

SMILES: OCCOCCOCCO [triethylene glycol]
- mass density ([1]; 298.15 K): 1119.78 ± 0.59 kg/m3
- mass density ([1]; 308.15 K): 1112.61 ± 0.58 kg/m3

From the NIST ThermoML archive (doi:10.1021/je049943s)
